Reference: paper PMC5581131, “The novel sphingosine-1-phosphate receptors antagonist AD2900 affects lymphocyte activation and inhibits T-cell entry into the lymph nodes” (Oncotarget, 2017)

Experiments:
TNF-α = TNF-α secretion from activated PBMCs, ELISA; type: cell-based, human; details: 1-day pretreatment, 5th day of MLR
Procedure: To better characterize the effect of AD2900 on activated PBMCs, the influence of AD2900 on apoptosis and cytokine secretion was tested. After 5 days of MLR, the cells were collected for apoptosis evaluation, while the supernatant was collected for ELISA test. Apoptosis was induced on the activated PBMCs only at higher concentrations of AD2900, above 10 μM (Figure 1C). Therefore, only a small part of the effect of AD2900 on the suppression of lymphocytic proliferation might be attributed to apoptosis. AD2900-induced inhibition of proliferation was accompanied by a reduced level of IFN-γ concentrations in the supernatant (Figure 1D).
Human PBLs were collected from human whole blood collected from healthy donors. Subsequently, the cells were centrifuged on a Ficoll-Paque gradient (Fresenius Kabi Norge AS, Oslo, Norway) and were isolated from the interphase layer. For the human MLR experiment, PBMCs from one healthy donor were pretreated for 1 day with AD2900, AD2730, AD2750, YZ297, YZ158, FTY720, or SEW2871. […] For the thymidine incorporation assay, after 4 days of co-culture, cells were pulsed with ^3H-thymidine at 1 μCi (0.037MBq) per well (PerkinElmer, MA, USA) for 16 additional hours and then harvested onto glass-fiber filters. ^3H-thymidine incorporation was measured using Top Count. […]

C57BL/6J female mice = assay: Leukocyte counts in thymus, blood, spleen and lymph nodes after oral administration in drinking water; type: in vivo, mouse; details: 1.8 mg/l in drinking water
Procedure: Next, 7- to 8-week-old C57BL/6J female mice were orally administered with AD2900 mixed in drinking water in different dosages (1.8, 2.7, or 3.6 mg/l) for 2 days (Figure 4A) or 7 days (Figure 4B); FTY720 was used as a positive control. In the 7-day experiment, the water was replaced on Day 3 with fresh water containing the same concentration of analog. At the end of the experiment, blood, spleen, inguinal lymph nodes, and thymus were obtained from each animal and the number of leukocytes was evaluated.
Figure 4 AD2900 treatment alters the distribution of leukocytes in the thymus, blood, spleen, and peripheral lymph nodes in mice C57BL/6 female mice were orally administered with 1.8 mg/l AD2900 in their drinking water for 2 days (A) or 7 days (B), and FTY720 (1.8 mg/l) was used as a positive control. Leukocytes from the thymus, blood, spleen, and peripheral lymph nodes (pLNs) were collected and counted. All the significances are compared to untreated healthy mice. Results summarize four independent experiments in figure (A) and two independent experiments in figure (B). n = 4–7 mice per group in each experiment. Results of Student’s t-test:*(P < 0.05, two-tailed test), ** (P < 0.01, two-tailed test), *** (P < 0.001, two-tailed test), **** (P < 0.0001, two-tailed test).
C57BL/6 female mice aged 7–8 weeks were obtained from Harlan Laboratories (Jerusalem, Israel). The animal study was conducted under appropriate conditions and was approved by the Institutional Animal Care and Use Committee of the Hebrew University of Jerusalem in accordance with the national laws and regulations for the protection of animals. AD2900 was dissolved in 10% BSA (MP Biomedicals, CA, USA) in DDW at 1 mg/ml and then further diluted in 200 ml water to get final concentrations at 1.8, 2.7, or 3.6 mg/l. AD2900 and FTY720 were supplied ad libitum to the mice for 2 days or 7 days. At the end of the experiment, blood was collected, and the mice were sacrificed and tissues (lymph nodes and spleen) were harvested.
Murine blood samples, collected in tubes coated with EDTA (Grelner bio-one, Germany), were counted by a Mindray veterinary hematology Analyzer (Mindray, China). Single cell suspensions of lymph nodes and spleen were made in 1.5 ml of PBS. Cell counts were determined from these suspensions, yielding results in thousands of cells per microliter (μl).

Compound | TNF-α concentration in the culture media (TNF-α) | increase of splenocyte counts (C57BL/6J female mice; 2-day treatment) | increase of thymus WBC count (C57BL/6J female mice; 2-day treatment) | increase of mice WBC count (C57BL/6J female mice; 7-day treatment) | increase of splenocyte counts (C57BL/6J female mice; 7-day treatment) | reduction of the number of leukocytes in the lymph nodes, of that of the control (C57BL/6J female mice; 7-day treatment) | lymph node leukocyte count (C57BL/6J female mice; 2-day and 7-day treatments) | WBC and splenocyte counts (C57BL/6J female mice; both 2-day and 7-day treatments)
CCCCCCCCCCCCCCCCNC(CO)(CO)CO [AD2900] | not influenced | 33% ± 9% | 25% ± 8.2% | 23% ± 7% | 20% ± 7% | 18% ± 4% | – | –
CCCCCCCCc1ccc(CCC(N)(CO)CO)cc1 [FTY720, Fingolimod, reference compound] | – | – | – | – | – | – | only minor effects | dramatically reduced
